Experimental data reported in patent US12630547B2, “RAS protein degraders, pharmaceutical compositions thereof, and their therapeutic applications” (BioTheryX, Inc., priority 2019, dated 2026).

Legend:
Format in all cases: cell-based
H23 cells = experiment: Cell viability assay (CELLTITER-GLO), H23 cells; settings: Table 4; 3 days
Method in brief: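 H23 cells in RPMI 1640 with 10% FBS, 4,000 cells/well, exposed to compound or DMSO for 3 days at 37° C, 5% CO2. Viability read by CellTiter-Glo luminescence after 10 min. IC50 reported in potency bins.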

H358 cells = experiment: Cell viability assay (CELLTITER-GLO), H358 cells; settings: Table 4; 3 days
Method in brief: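 H358 cells (RPMI 1640, 10% FBS), 4,000 per well, exposed to compound for 3 days at 37 °C, 5% CO2; viability by CellTiter-Glo luminescence. Single-dose viability as % DMSO at 10 or 1 μM, binned A (<10%) to D (≥50%); IC50 binned A (≤1 μM) to D (>10 μM).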

MOLM-13 cells = experiment: Cell viability assay (CELLTITER-GLO), MOLM-13 cells; settings: Table 2, compound at 10 μM, 3 days; for viability at 10 µM: Homo sapiens, MOLM-13, 72 h, read-out: Effect on MOLM-13 cell viability (% DMSO)
Method in brief: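 MV-4-11 and MOLM-13 cells in RPMI 1640/10% FBS were seeded at 4,000 cells/well and exposed to compound (10 μM or 1 μM) or DMSO for 3 days at 37 °C, 5% CO2. CellTiter-Glo luminescence gave viability as % DMSO, binned into ranges A (<10%) through D (≥50%).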

SMILES | Inhibition of H358 cells, IC50 (class) (H358 cells) | Inhibition of H23 cells, IC50 (class) (H23 cells) | viability at 10 µM (MOLM-13 cells) | Effect on MOLM-13 cell viability (% DMSO) (MOLM-13 cells)
C=C(Cl)C(=O)N1CCN(c2nc(OC[C@@H]3CCCN3C)nc3c(F)c(-c4c(F)cccc4OCCCCCCCN4CCC(c5cc(F)cc6c5CN(C5CCC(=O)NC5=O)C6=O)CC4)c(Cl)cc23)CC1 (stereo partly drawn) [Compound 108, 3-(4-(1-(7-(2-(6-Chloro-4-(4-(2-chloroacryloyl)piperazin-1-yl)-8-fluoro-2-(((S)-1-methylpyrrolidin-2-yl)methoxy)quinazolin-7-yl)-3-fluorophenoxy)heptyl)piperidin-4-yl)-6-fluoro-1-oxoisoindolin-2-yl)piperidine-2,6-dione] | A′ | A′ | < 10% | 
CCC(=O)N1CCN(c2ncnc3c(F)c(-c4c(F)cccc4OCCOCc4ccc(COCCN5CCC(c6cc(F)cc7c6CN(C6CCC(=O)NC6=O)C7=O)CC5)cc4)c(Cl)cc23)CC1 (stereo not drawn) [Compound 109, 3-(4-(1-(2-((4-((2-(2-(6-Chloro-8-fluoro-4-(4-propionylpiperazin-1-yl)quinazolin-7-yl)-3-fluorophenoxy)ethoxy)methyl)benzyl)oxy)ethyl)piperidin-4-yl)-6-fluoro-1-oxoisoindolin-2-yl)piperidine-2,6-dione] | B′ | B′ | < 10% | 
C=C(Cl)C(=O)N1CCN(c2ncnc3c(F)c(-c4c(F)cccc4OCCc4ccc(CCN5CCC(c6cc(F)cc7c6CN(C6CCC(=O)NC6=O)C7=O)CC5)cc4)c(Cl)cc23)CC1 (stereo not drawn) [Compound 111, 3-(4-(1-(4-(2-(2-(6-Chloro-4-(4-(2-chloroacryloyl)piperazin-1-yl)-8-fluoroquinazolin-7-yl)-3-fluorophenoxy)ethyl)phenethyl)piperidin-4-yl)-6-fluoro-1-oxoisoindolin-2-yl)piperidine-2,6-dione] | B′ | A′ | < 10% | 
C=C(Cl)C(=O)N1CCN(c2ncnc3c(F)c(-c4c(F)cccc4OCCCCCCCN4CCC(c5cc(F)cc6c5CN(C5CCC(=O)NC5=O)C6=O)C4)c(Cl)cc23)CC1 (stereo not drawn) [Compound 112, 3-(4-(1-(7-(2-(6-Chloro-4-(4-(2-chloroacryloyl)piperazin-1-yl)-8-fluoroquinazolin-7-yl)-3-fluorophenoxy)heptyl)pyrrolidin-3-yl)-6-fluoro-1-oxoisoindolin-2-yl)piperidine-2,6-dione] | B′ | A′ | < 10% | 
C=C(Cl)C(=O)N1CCN(c2ncnc3c(F)c(-c4c(F)cccc4OCCC4CCC(CCN5CCC(c6cc(F)cc7c6CN(C6CCC(=O)NC6=O)C7=O)CC5)CC4)c(Cl)cc23)CC1 (stereo not drawn) [Compound 116, 3-(4-(1-(2-(4-(2-(2-(6-Chloro-4-(4-(2-chloroacryloyl)piperazin-1-yl)-8-fluoroquinazolin-7-yl)-3-fluorophenoxy)ethyl)cyclohexyl)ethyl)piperidin-4-yl)-6-fluoro-1-oxoisoindolin-2-yl)piperidine-2,6-dione] | A′ | A′ |  | A (“A” represents a % viability value of less than 10%)
C=C(Cl)C(=O)N1CCN(c2ncnc3c(F)c(-c4c(F)cccc4OCCCCCCCN4CCCC(c5cc6c(cc5F)C(=O)N(C5CCC(=O)NC5=O)C6)C4)c(Cl)cc23)CC1 (stereo not drawn) [Compound 119, 3-(5-(1-(7-(2-(6-Chloro-4-(4-(2-chloroacryloyl)piperazin-1-yl)-8-fluoroquinazolin-7-yl)-3-fluorophenoxy)heptyl)piperidin-3-yl)-6-fluoro-1-oxoisoindolin-2-yl)piperidine-2,6-dione] | B′ | A′ | < 10% | 
C=C(Cl)C(=O)N1CCN(c2ncnc3c(F)c(-c4c(F)cccc4OCCCN4CCC(c5cc(F)cc6c5CN(C5CCC(=O)NC5=O)C6=O)CC4)c(Cl)cc23)CC1 (stereo not drawn) [Compound 121, 3-(4-(1-(3-(2-(6-Chloro-4-(4-(2-chloroacryloyl)piperazin-1-yl)-8-fluoroquinazolin-7-yl)-3-fluorophenoxy)propyl)piperidin-4-yl)-6-fluoro-1-oxoisoindolin-2-yl)piperidine-2,6-dione] | B′ | B′ | < 10% | 

Now from value to compound, other results behind:

Inhibition of H358 cells, IC50 (class) (H358 cells) | SMILES | Inhibition of H23 cells, IC50 (class) (H23 cells) | viability at 10 µM (MOLM-13 cells) | Effect on MOLM-13 cell viability (% DMSO) (MOLM-13 cells)
B′ | C=C(Cl)C(=O)N1CCN(c2ncnc3c(F)c(-c4c(F)cccc4OCCC4CCC(CCN5CCC(c6cc(F)cc7c6CN(C6CCC(=O)NC6=O)C7=O)CC5)CC4)c(Cl)cc23)CC1 (stereo not drawn) [Compound 110, 3-(4-(1-(2-(4-(2-(2-(6-Chloro-4-(4-(2-chloroacryloyl)piperazin-1-yl)-8-fluoroquinazolin-7-yl)-3-fluorophenoxy)ethyl)cyclohexyl)ethyl)piperidin-4-yl)-6-fluoro-1-oxoisoindolin-2-yl)piperidine-2,6-dione] | A′ | < 10% | 
B′ | C=C(Cl)C(=O)N1CCN(c2ncnc3c(F)c(-c4c(F)cccc4OCCCCCCCCCN4CCC(c5cc(F)cc6c5CN(C5CCC(=O)NC5=O)C6=O)CC4)c(Cl)cc23)CC1 (stereo not drawn) [Compound 113, 3-(4-(1-(9-(2-(6-Chloro-4-(4-(2-chloroacryloyl)piperazin-1-yl)-8-fluoroquinazolin-7-yl)-3-fluorophenoxy)nonyl)piperidin-4-yl)-6-fluoro-1-oxoisoindolin-2-yl)piperidine-2,6-dione] | B′ | < 10% | 
B′ | C=C(Cl)C(=O)N1CCN(c2ncnc3c(F)c(-c4c(F)cccc4OCCCCCCCCCCCN4CCC(c5cc(F)cc6c5CN(C5CCC(=O)NC5=O)C6=O)CC4)c(Cl)cc23)CC1 (stereo not drawn) [Compound 114, 3-(4-(1-(11-(2-(6-Chloro-4-(4-(2-chloroacryloyl)piperazin-1-yl)-8-fluoroquinazolin-7-yl)-3-fluorophenoxy)undecyl)piperidin-4-yl)-6-fluoro-1-oxoisoindolin-2-yl)piperidine-2,6-dione] | B′ | < 10% | 
B′ | C=C(Cl)C(=O)N1CCN(c2nc(OCCN(C)C)nc3c(F)c(-c4c(F)cccc4OCCCCCCCN4CCC(c5cc(F)cc6c5CN(C5CCC(=O)NC5=O)C6=O)CC4)c(Cl)cc23)CC1 (stereo not drawn) [Compound 115, 3-(4-(1-(7-(2-(6-Chloro-4-(4-(2-chloroacryloyl)piperazin-1-yl)-2-(2-(dimethylamino)-ethoxy)-8-fluoroquinazolin-7-yl)-3-fluorophenoxy)heptyl)piperidin-4-yl)-6-fluoro-1-oxoisoindolin-2-yl)piperidine-2,6-dione] | A′ | < 10% | 
A′ | C=C(Cl)C(=O)N1CCN(c2ncnc3c(F)c(-c4c(F)cccc4OC[C@H]4CC[C@H](CN5CCC(c6cc(F)cc7c6CN(C6CCC(=O)NC6=O)C7=O)CC5)CC4)c(Cl)cc23)CC1 (stereo partly drawn) [Compound 117, 3-(4-(1-(((1r,4r)-4-((2-(6-Chloro-4-(4-(2-chloroacryloyl)piperazin-1-yl)-8-fluoro-quinazolin-7-yl)-3-fluorophenoxy)methyl)cyclohexyl)methyl)piperidin-4-yl)-6-fluoro-1-oxoisoindolin-2-yl)piperidine-2,6-dione] | A′ | < 10% | 
A′ | C=C(Cl)C(=O)N1CCN(c2ncnc3c(F)c(-c4c(F)cccc4OCCC4CCC(CN5CCC(c6cc(F)cc7c6CN(C6CCC(=O)NC6=O)C7=O)CC5)CC4)c(Cl)cc23)CC1 (stereo not drawn) [Compound 118, 3-(4-(1-((4-(2-(2-(6-Chloro-4-(4-(2-chloroacryloyl)piperazin-1-yl)-8-fluoroquinazolin-7-yl)-3-fluorophenoxy)ethyl)cyclohexyl)methyl)piperidin-4-yl)-6-fluoro-1-oxoisoindolin-2-yl)piperidine-2,6-dione] | A′ | < 10% | 
B′ | C=C(Cl)C(=O)N1CCN(c2ncnc3c(F)c(-c4c(F)cccc4OCCN4CCC(CCN5CCC(c6cc(F)cc7c6CN(C6CCC(=O)NC6=O)C7=O)CC5)CC4)c(Cl)cc23)CC1 (stereo not drawn) [Compound 120, 3-(4-(1-(2-(1-(2-(2-(6-Chloro-4-(4-(2-chloroacryloyl)piperazin-1-yl)-8-fluoroquinazolin-7-yl)-3-fluorophenoxy)ethyl)piperidin-4-yl)ethyl)piperidin-4-yl)-6-fluoro-1-oxoisoindolin-2-yl)piperidine-2,6-dione] | B′ | < 10% | 
